Measurements reported in patent US9949968B2, “Diarylalkylamine REV-ERB antagonists and their use as medicaments” (FONDAZIONE ISTITUTO ITALIANO DI TECNOLOGIA, priority 2013, dated 2018).
Structures can show the parent of a compound that is named as a salt.

What was measured:
[1] = test system: REV-ERB; experiment: Luciferase-based assay of REV-ERB mediated transcriptional regulation (RevRE/SV40-CLuc reporter in HEK-293 cells); assay type: cell-based; settings: HEK-293 cells transfected with RevRE reporter and REV-ERBα and/or β; read 24 h post-transfection; read-out: REV-ERB antagonism EC50
Excerpt: Luciferase-Base Assay to Assess the Activity of the Compounds on REV-ERB Mediated Transcriptional Regulation
In order to assess the effect of the compounds of the invention on REV-ERB activity the inventors exploited the ability of REV-ERB to repress gene transcription of a specific DNA cis-element. In fact, the DNA binding domain (DBD) of REV-ERB recognizes specific DNA sequences (called RevREs=Rev-erb Responsive Elements) which contains an AGGTCA motif linked in 5′ to an A/T rich sequence harboring the following consensus: A/T A A/T N T (Harding et al., Mol Cell Biol., 1993; 13:3113).
Therefore, two repetitions of the RevRE consensus AGAATGTAGGTCA (SEQ ID NO: 13) upstream a SV40 promoter driving the expression of a reporter gene were cloned. As reported, the luciferase enzyme from the ostracod Cypridina noctiluca was adopted. […] Cypridina luciferase (CLuc) is secreted from cells by virtue of its natural signal peptide and its luminescence can be measured from the supernatant of transfected cells. Therefore, cell lysis is not necessary. Secreted CLuc is a very stable protein. Because of this property, the activity measured from the supernatant reflects the amount of protein accumulated up to the time of sampling. Multiple samples can therefore be obtained from the same transfected cells, allowing an easy set-up of time-course experiments. In addition, the direct use of the supernatant makes the system easily prone to automation for High Throughput Screening.
In order to normalize the experiment for the transfection efficiency, it was used a plasmid containing a SV40 promoter driving the expression of a secreted form of human alkaline phosphatase (SEAP), which enzymatic activity in the supernatant can be measured with chemiluminescence substrates.
To be able to rule out false-positive, for example due to the interference of the compounds to be tested with the fluorescence and/or chemiluminescence reactions, it was used as control a mutated version of the RevRE (GAGCCCGTAGGTCA) (SEQ ID NO: 14) that is no longer able to bind REV-ERB DBD (Harding et al., Mol Cell Biol., 1993; 13:3113).
The person skilled in the art will appreciate that an agonist will improve the ability of REV-ERB to repress the transcription, reducing the luminescence signal, while an antagonist will produce the opposite effect.
For the assay, HEK-293 cells were transfected with the reporter vectors and a plasmid expressing the REV-ERBα and/or β protein. After 6 h from transfection, the medium was replaced with fresh medium containing different doses of the compounds or vehicle (DMSO). After 24 h post-transfection, the supernatant was analyzed for the secreted luciferase and AP activity according to the manufacture instruction. Data normalized as fold activation versus vehicle (DMSO) were fitted using a four-parameter dose-response curve to calculate the EC50 of the different compounds.
(§1) The different compounds were tested for their ability to inhibit the growth of the tumorigenic breast cancer cells BT-474 and for their antagonistic activity toward REV-ERB transcriptional repression, as described in the biological method section.
For the cell growth inhibition (GI) the growth inhibition 50 (GI50) and the growth inhibition max (GImax) are reported. […] The bottom plateaus of the curve was used to calculate the Growth Inhibition max (GImax), defined as the percentage of the reduction of cells after 48 h upon a saturating dose of the administered compound. Compounds with a GI50<100 μM were also tested for their antagonistic activity toward REV-ERB. […]

[2] = test system: tumorigenic breast cancer cells BT-474; experiment: Growth inhibition assay (CyQUANT Cell Proliferation Assay) in BT-474 cells; assay type: cell-based; settings: Homo sapiens; for GI50: 48 h, CyQUANT, read-out: Cell Growth Inibition GI50; for Emax: reduction of cells after 48 h at saturating dose, read-out: Cell Growth Inibition GImax
Excerpt: Given that REV-ERB target genes include several metabolic regulators, such as Pgc-1α and Nampt, it was decided to test the cell proliferation with a method that is independent from the metabolic state of the cell.
The CyQUANT® Cell Proliferation Assay Kit (Invitrogen) was used, an assay that has a linear detection range extending from 50 or fewer to at least 250,000 cells.
Frozen cells are simply thawed and lysed by addition of a buffer containing the CyQUANT®.
For the assay, tumorigenic breast cancer cells BT-474 cells were seeded at 2500 cells per well in a 96-well plate and incubated over-night at 37° C. Then, fresh medium containing different concentration of the compounds or vehicle (DMSO) was added and cells were growth 48 h at 37° C. Finally, cells were frozen at […] and then processed according to the manufacture instructions. A minimum of triplicate data for each dose was used for the analysis.
Data were collected and analyzed with Prism 5 software to calculate the growth inhibition curve.
In particular, values obtained from the DMSO treated cells was set at 100% of growth. Data from treatment of cells with serial dilutions of the compounds were normalized versus the DMSO group and fitted using a four-parameter dose-response curve.
GI50 was calculated as the concentration of compound that gives a response half way between bottom and top plateaus of the fitted curve.
The bottom plateaus of the fitted curve was used to calculate the Growth Inhibition max (GImax), defined as the percentage of the reduction of cells after 48 h upon a saturating dose of compound.
as §1
For the cell growth inhibition (GI) the growth inhibition 50 (GI50) and the growth inhibition max (GImax) are reported. […] The bottom plateaus of the curve was used to calculate the Growth Inhibition max (GImax), defined as the percentage of the reduction of cells after 48 h upon a saturating dose of the administered compound. Compounds with a GI50<100 μM were also tested for their antagonistic activity toward REV-ERB. For these compounds, the EC50 value is provided, calculated as the concentration of compound that gives a response half between the bottom (expression of the reporter in absence of compound) and the top (expression of the reporter at saturating doses of compound) plateaus of the fitted curves (see biological method section for a description of the reported assay). n.d.=not determined; n.t.=not tested.

Row | EC50 [1] [µM] | GI50 [2] [µM] | Compound | Emax [2] [%]
1 | 29 | 18 | CN1CCN(Cc2cc(CNC3(c4cccs4)CCCC3)ccc2O)CC1 [Example 25, 2-[(4-Methylpiperazin-1-yl)methyl]-4-[[[1-(2-thienyl)cyclopentyl]amino]methyl]phenol trihydrochloride] | 70
2 | 8 | 2 | CN1CCC(Cc2cccc(CNC3(c4ccccc4F)CCCC3)c2)CC1 [Example 18, 1-(2-fluorophenyl)-N-[[3-[1-methyl-4-piperidyl)methyl]phenyl]methyl]cyclopentanamine dihydrochloride] | 95
3 | 50 | 30 | Oc1ccc(CNC2(c3ccccc3F)CCCC2)cc1CN1CCN(c2ccccc2)CC1 [Example 9, 4-[[[1-(2-Fluorophenyl)cyclopentyl]amino]methyl]-2-[(4-phenylpiperazin-1-yl)methyl]phenol trihydrochloride] | 50
4 | 47 | 30 | CN1CCN(Cc2cccc(CNC3(c4ccccc4F)CCCC3)c2)CC1 [Example 4, 1-(2-Fluorophenyl)-N-[[3-[(4-methylpiperazin-1-yl)methyl]phenyl]methyl]-cyclopentanamine trihydrochloride] | 73
5 | 38 | 30 | CN1CCN(Cc2cc(CNC3(c4ccccc4F)CCC3)ccc2O)CC1 [Example 33, 4-[[[1-(2-Fluorophenyl)cyclobutyl]amino]methyl]-2-[(4-methylpiperazin-1-yl)methyl]phenol trihydrochloride] | 70
6 | 15 | 14 | CN1CCN(Cc2cc(CNC3(c4cccc(F)c4)CCCC3)ccc2O)CC1 [Example 22, 4-[[[1-(3-Fluorophenyl)cyclopentyl]amino]methyl]-2-[(4-methylpiperazin-1-yl)methyl]phenol trihydrochloride] | 80
7 | 11 | 5 | CN1CCC(Cc2cccc(CN(C)C3(c4ccccc4F)CCCC3)c2)CC1 [Example 19, 1-(2-fluorophenyl)-N-methyl-N-[[3-[(1-methyl-4-piperidyl)methyl]phenyl]methyl]cyclopentanamine dihydrochloride] | 90
8 | 43 | 26 | COc1ccc(CNC2(c3ccccc3F)CCCC2)cc1CN1CCN(C)CC1 [Example 5, 1-(2-Fluorophenyl)-N-[[4-methoxy-3-[(4-methylpiperazin-1-yl)methyl]-phenyl]methyl]cyclopentanamine trihydrochloride] | 75
9 | 25 | 15 | CCN1CCN(Cc2cc(CNC3(c4ccccc4F)CCCC3)ccc2O)CC1 [Example 10, 2-[(4-Ethylpiperazin-1-yl)methyl]-4-[[[1-(2-fluorophenyl)cyclopentyl]amino]-methyl]phenol trihydrochloride] | 70
10 | 24 | 18 | CN1CCN(Cc2cc(CNC3(c4ccccc4)CCCC3)ccc2O)CC1 [Example 7, 2-[(4-Methylpiperazin-1-yl)methyl]-4-[[(1-phenylcyclopentyl)amino]methyl]-phenol trihydrochloride] | 70
11 | 16 | 12 | COc1cccc(C2(NCc3ccc(O)c(CN4CCN(C)CC4)c3)CCCC2)c1 [Example 27, 4-[[[1-(3-Methoxyphenyl)cyclopentyl]amino]methyl]-2-[(4-methylpiperazin-1-yl)methyl]phenol trihydrochloride] | 70
12 | 6 | 3 | CN1CCC(Cc2cccc(CNC3(c4ccccc4F)CCOCC3)c2)CC1 [Example 30, 4-(2-Fluorophenyl)-N-[[3-[(1-methyl-4-piperidyl)methyl]phenyl]methyl]tetrahydropyran-4-amine dihydrochloride] | 95
13 | 35 | 50 | Fc1ccccc1C1(NCc2cccc(CN3CCCCC3)c2)CCCC1 [Example 21, 1-(2-Fluorophenyl)-N-[[3-(1-piperidylmethyl)phenyl]methyl]cyclopentanamine dihydrochloride] | 76
14 | 40 | 23 | Oc1ccc(CNC2(c3ccccc3F)CCCC2)cc1CN1CCN(Cc2ccccc2)CC1 [Example 12, 2-[(4-Benzylpiperazin-1-yl)methyl]-4-[[[1-(2-fluorophenyl)cyclopentyl]amino]-methyl]phenol trihydrochloride] | 77
15 | 23 | 19 | COc1ccccc1C1(NCc2ccc(O)c(CN3CCN(C)CC3)c2)CCCC1 [Example 14, 4-{[1-(2-Methoxy-phenyl)-cyclopentyl-amino]-methyl}-2-(4-methylpiperazin-1-ylmethyl)-phenol trihydrochloride] | 82
16 | 12 | 11 | CN1CCN(Cc2cc(CNC3(c4ccccc4F)CCN(Cc4ccccc4)CC3)ccc2O)CC1 [Example 20, 4-[[[1-Benzyl-4-(2-fluorophenyl)-4-piperidyl]amino]methyl]-2-[(4-methylpiperazin-1-yl)methyl]phenol tetrahydrochloride] | 92
17 | 10 | 10 | CN1CCN(Cc2cc(CNC3(c4ccc(F)cc4)CCCC3)ccc2O)CC1 [Example 23, 4-[[[1-(4-Fluorophenyl)cyclopentyl]amino]methyl]-2-[(4-methylpiperazin-1-yl)methyl]phenol trihydrochloride] | 90
18 | 40 | 24 | Oc1ccc(CNC2(c3ccccc3F)CCCC2)cc1CN1CCNCC1 [Example 11, 4-[[[1-(2-Fluorophenyl)cyclopentyl]amino]methyl]-2-(piperazin-1-ylmethyl)-phenol] | 70
19 | 45 | 30 | Oc1ccc(CNC2(c3ccccc3F)CCCC2)cc1CN1CCCCC1 [Example 2, 4-[[[1-(2-Fluorophenyl)cyclopentyl]amino]methyl]-2-(1-piperidylmethyl)phenol dihydrochloride] | 55

Row | Compound | EC50 [1] [µM] | GI50 [2] [µM] | Emax [2] [%]
20 | CN1CCN(Cc2cc(CNC3(c4ccccc4F)CCC(F)(F)CC3)ccc2O)CC1 [Example 17, 4-[[[4,4-difluoro-1-(2-fluorophenyl)cyclohexyl]amino]methyl]-2-[(4-methyl-piperazin-1-yl)methyl]phenol trihydrochloride] | 21 | 18 | 90
